Experiments:
[1] = biological target: Ephrin type-B receptor 4 (Homo sapiens) (UniProt P54760)
[2] = biological target: Alanine--tRNA ligase, cytoplasmic (Homo sapiens) (UniProt P49588)
[3] = biological target: ATP-binding cassette sub-family D member 3 (Homo sapiens) (UniProt P28288)
[4] = biological target: Tyrosine-protein kinase ABL1 (Homo sapiens, UniProt P00519)
[5] = biological target: Low molecular weight phosphotyrosine protein phosphatase (Homo sapiens) (UniProt P24666)
[6] = biological target: Bifunctional purine biosynthesis protein ATIC (Homo sapiens) (UniProt P31939)
[7] = biological target: Atlastin-3 (Homo sapiens) (UniProt Q6DD88)
[8] = biological target: Serine/threonine-protein kinase ATR (Homo sapiens) (UniProt Q13535)
[9] = biological target: B-cell receptor-associated protein 31 (Homo sapiens) (UniProt P51572)
Cyclin-T1 (Homo sapiens) = Cyclin-T1 (Homo sapiens) (UniProt O60563)
[10] = biological target: T-complex protein 1 subunit beta (Homo sapiens) (UniProt P78371)
[11] = biological target: Cyclin-dependent kinase 1 (Homo sapiens) (UniProt P06493)
[12] = biological target: Cyclin-dependent kinase 17 (Homo sapiens) (UniProt Q00537)
[13] = biological target: MICOS complex subunit MIC19 (Homo sapiens) (UniProt Q9NX63)
Homo sapiens [14] = species: Homo sapiens
Cullin-3 (Homo sapiens) = Cullin-3 (Homo sapiens) (UniProt Q13618)
[15] = biological target: Drebrin-like protein (Homo sapiens) (UniProt Q9UJU6)
Dynamin-2 (Homo sapiens) = Dynamin-2 (Homo sapiens) (UniProt P50570)
[16] = biological target: Proteasome adapter and scaffold protein ECM29 (Homo sapiens) (UniProt Q5VYK3)
[17] = biological target: Heterogeneous nuclear ribonucleoprotein H (Homo sapiens) (UniProt P31943)
[18] = biological target: Very-long-chain 3-oxoacyl-CoA reductase (Homo sapiens) (UniProt Q53GQ0)
[19] = biological target: Interleukin enhancer-binding factor 3 (Homo sapiens) (UniProt Q12906)
[20] = biological target: Importin-9 (Homo sapiens) (UniProt Q96P70)
[21] = biological target: Dual specificity mitogen-activated protein kinase kinase 6 (Homo sapiens) (UniProt P52564)
[22] = biological target: Mitogen-activated protein kinase kinase kinase 11 (Homo sapiens) (UniProt Q16584)
[23] = biological target: S-adenosylmethionine synthase isoform type-2 (Homo sapiens) (UniProt P31153)
[24] = biological target: DNA replication licensing factor MCM4 (Homo sapiens) (UniProt P33991)
[25] = biological target: DNA replication licensing factor MCM7 (Homo sapiens) (UniProt P33993)
Midasin (Homo sapiens) = Midasin (Homo sapiens) (UniProt Q9NU22)
[26] = biological target: Cytochrome c oxidase subunit NDUFA4 (Homo sapiens) (UniProt O00483)
[27] = biological target: Ubiquitin thioesterase OTUB1 (Homo sapiens) (UniProt Q96FW1)
[28] = biological target: Protein mono-ADP-ribosyltransferase PARP16 (Homo sapiens) (UniProt Q8N5Y8)
Homo sapiens [29] = species: Homo sapiens; remark: listed apart in the source
[30] = biological target: Proliferating cell nuclear antigen (Homo sapiens) (UniProt P12004)
[31] = biological target: Pyruvate kinase PKM (Homo sapiens) (UniProt P14618)
[32] = biological target: Serine/threonine-protein kinase PLK4 (Homo sapiens) (UniProt O00444)
[33] = biological target: Inorganic pyrophosphatase (Homo sapiens) (UniProt Q15181)
[34] = biological target: Peroxiredoxin-2 (Homo sapiens) (UniProt P32119)
[35] = biological target: cAMP-dependent protein kinase catalytic subunit beta (Homo sapiens) (UniProt P22694)
[36] = biological target: cGMP-dependent protein kinase 1 (Homo sapiens) (UniProt Q13976)
[37] = biological target: Pre-mRNA-processing factor 6 (Homo sapiens) (UniProt O94906)
[38] = biological target: Large ribosomal subunit protein eL24 (Homo sapiens) (UniProt P83731)
[39] = biological target: Large ribosomal subunit protein uL6 (Homo sapiens) (UniProt P32969)
Homo sapiens [40] = species: Homo sapiens; remark: listed apart in the source
[41] = biological target: SWI/SNF complex subunit SMARCC2 (Homo sapiens) (UniProt Q8TAQ2)
[42] = biological target: Signal recognition particle 14 kDa protein (Homo sapiens) (UniProt P37108)
[43] = biological target: Single-stranded DNA-binding protein, mitochondrial (Homo sapiens) (UniProt Q04837)
[44] = biological target: Protein VAC14 homolog (Homo sapiens) (UniProt Q08AM6)
Also: assay method not described here.

Sequence of DNA replication licensing factor MCM7 (Homo sapiens) (P33993 whole entry): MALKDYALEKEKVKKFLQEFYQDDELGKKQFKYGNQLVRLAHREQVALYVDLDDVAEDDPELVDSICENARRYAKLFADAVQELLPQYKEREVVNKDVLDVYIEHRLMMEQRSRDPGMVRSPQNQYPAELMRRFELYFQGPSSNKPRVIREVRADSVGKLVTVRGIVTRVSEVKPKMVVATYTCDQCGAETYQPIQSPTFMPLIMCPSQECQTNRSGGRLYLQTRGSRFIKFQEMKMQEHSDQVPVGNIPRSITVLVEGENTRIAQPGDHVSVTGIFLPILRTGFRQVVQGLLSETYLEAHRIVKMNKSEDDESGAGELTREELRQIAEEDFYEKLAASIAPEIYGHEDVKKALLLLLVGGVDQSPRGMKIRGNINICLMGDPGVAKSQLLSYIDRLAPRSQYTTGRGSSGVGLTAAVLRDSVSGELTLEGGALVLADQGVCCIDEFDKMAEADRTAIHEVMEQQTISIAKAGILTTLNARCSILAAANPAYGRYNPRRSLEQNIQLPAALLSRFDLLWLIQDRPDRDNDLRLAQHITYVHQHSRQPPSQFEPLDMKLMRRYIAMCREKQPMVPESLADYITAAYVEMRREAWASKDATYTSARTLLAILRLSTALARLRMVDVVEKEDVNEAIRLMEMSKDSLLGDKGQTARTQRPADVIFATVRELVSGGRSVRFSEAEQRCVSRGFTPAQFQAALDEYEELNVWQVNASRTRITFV
Sequence of Tyrosine-protein kinase ABL1 (P00519 whole entry): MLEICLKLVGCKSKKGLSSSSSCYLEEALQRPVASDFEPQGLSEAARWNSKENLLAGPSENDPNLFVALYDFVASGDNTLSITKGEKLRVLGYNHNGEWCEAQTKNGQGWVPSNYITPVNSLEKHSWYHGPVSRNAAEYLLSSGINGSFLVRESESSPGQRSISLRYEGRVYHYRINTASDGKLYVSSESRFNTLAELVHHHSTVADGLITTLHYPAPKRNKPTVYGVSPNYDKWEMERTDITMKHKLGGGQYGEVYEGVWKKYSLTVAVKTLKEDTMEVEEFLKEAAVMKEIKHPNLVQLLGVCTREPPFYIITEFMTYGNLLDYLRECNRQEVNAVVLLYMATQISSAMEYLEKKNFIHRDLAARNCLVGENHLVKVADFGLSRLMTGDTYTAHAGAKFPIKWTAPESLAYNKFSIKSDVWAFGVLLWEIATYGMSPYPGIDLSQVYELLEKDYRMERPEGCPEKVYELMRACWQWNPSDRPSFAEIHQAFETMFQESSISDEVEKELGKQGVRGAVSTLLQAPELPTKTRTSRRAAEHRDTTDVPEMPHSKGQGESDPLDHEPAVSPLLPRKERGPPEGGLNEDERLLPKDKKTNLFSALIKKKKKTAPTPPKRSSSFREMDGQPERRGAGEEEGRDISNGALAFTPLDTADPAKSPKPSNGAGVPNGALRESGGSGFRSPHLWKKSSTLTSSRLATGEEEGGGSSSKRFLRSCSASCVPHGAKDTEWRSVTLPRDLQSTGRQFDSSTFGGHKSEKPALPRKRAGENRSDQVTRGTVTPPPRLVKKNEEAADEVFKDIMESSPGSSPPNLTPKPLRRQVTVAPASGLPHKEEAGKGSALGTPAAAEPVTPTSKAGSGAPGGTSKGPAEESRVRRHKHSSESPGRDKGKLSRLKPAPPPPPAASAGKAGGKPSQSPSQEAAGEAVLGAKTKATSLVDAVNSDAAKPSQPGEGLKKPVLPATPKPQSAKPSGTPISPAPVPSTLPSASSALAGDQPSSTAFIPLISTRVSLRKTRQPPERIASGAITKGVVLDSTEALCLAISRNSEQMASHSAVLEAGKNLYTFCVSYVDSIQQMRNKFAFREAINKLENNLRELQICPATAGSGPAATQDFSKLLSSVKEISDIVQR
Sequence of Bifunctional purine biosynthesis protein ATIC (Homo sapiens) (P31939 whole entry, looked up): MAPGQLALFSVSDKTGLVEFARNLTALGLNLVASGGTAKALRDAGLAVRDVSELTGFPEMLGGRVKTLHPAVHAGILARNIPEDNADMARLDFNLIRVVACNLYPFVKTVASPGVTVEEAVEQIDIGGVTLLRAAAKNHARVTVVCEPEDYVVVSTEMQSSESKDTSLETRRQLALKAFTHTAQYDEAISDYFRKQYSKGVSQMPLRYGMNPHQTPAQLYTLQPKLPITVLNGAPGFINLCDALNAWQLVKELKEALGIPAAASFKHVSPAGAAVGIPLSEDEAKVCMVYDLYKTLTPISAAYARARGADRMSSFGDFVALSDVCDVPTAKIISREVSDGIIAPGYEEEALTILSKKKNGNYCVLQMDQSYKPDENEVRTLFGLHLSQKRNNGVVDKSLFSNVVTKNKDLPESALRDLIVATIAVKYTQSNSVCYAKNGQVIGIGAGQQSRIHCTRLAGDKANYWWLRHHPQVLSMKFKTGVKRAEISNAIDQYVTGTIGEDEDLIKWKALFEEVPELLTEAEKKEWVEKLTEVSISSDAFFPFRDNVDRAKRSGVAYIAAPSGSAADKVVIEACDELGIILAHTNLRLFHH
Sequence of Drebrin-like protein (Homo sapiens) (Q9UJU6 whole entry): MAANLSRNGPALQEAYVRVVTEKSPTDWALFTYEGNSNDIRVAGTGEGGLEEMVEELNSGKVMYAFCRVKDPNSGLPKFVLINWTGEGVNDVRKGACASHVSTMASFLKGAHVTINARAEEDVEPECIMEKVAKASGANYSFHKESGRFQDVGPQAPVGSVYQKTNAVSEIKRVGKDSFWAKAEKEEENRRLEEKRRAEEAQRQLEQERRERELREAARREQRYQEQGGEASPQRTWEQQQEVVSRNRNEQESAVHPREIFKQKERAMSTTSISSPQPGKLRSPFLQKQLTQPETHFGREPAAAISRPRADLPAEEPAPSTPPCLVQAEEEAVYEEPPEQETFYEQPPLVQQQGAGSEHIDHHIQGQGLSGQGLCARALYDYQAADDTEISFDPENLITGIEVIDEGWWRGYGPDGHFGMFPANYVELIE
Sequence of B-cell receptor-associated protein 31 (Homo sapiens) (P51572 whole entry): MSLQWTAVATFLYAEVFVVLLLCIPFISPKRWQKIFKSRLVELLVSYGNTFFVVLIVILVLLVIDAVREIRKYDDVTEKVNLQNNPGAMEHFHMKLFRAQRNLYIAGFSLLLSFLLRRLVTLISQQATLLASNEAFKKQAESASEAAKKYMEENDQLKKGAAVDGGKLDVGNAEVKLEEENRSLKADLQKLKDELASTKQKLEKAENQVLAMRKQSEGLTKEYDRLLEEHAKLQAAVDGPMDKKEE
Sequence of Inorganic pyrophosphatase (Homo sapiens) (Q15181 whole entry): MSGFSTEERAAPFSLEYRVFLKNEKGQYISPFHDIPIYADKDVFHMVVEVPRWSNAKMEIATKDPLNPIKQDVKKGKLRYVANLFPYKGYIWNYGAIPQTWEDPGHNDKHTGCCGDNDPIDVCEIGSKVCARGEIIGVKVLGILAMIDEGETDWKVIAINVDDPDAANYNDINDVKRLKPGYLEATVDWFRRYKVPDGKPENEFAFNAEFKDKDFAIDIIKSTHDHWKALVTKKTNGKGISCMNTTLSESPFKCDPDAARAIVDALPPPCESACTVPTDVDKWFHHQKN
Sequence of Signal recognition particle 14 kDa protein (Homo sapiens) (P37108 whole entry): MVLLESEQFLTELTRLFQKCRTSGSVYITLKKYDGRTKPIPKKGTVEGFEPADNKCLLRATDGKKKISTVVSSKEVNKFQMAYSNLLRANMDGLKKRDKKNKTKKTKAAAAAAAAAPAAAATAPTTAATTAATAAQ
Sequence of T-complex protein 1 subunit beta (Homo sapiens) (P78371 whole entry, one chain of several): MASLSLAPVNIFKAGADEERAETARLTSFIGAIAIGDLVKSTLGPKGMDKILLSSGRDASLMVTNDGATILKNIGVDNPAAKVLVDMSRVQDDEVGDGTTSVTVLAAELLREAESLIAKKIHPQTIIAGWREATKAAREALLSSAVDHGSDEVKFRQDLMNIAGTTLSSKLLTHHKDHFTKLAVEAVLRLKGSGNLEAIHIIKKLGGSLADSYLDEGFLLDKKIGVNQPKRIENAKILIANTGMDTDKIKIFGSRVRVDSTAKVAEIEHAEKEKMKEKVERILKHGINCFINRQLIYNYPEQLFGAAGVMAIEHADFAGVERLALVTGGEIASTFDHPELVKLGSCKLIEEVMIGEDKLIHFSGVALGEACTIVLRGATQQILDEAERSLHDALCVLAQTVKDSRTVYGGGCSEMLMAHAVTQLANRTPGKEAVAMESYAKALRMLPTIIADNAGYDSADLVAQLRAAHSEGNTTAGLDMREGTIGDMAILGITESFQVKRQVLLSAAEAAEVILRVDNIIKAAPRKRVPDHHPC
Sequence of Heterogeneous nuclear ribonucleoprotein H (Homo sapiens) (P31943 whole entry): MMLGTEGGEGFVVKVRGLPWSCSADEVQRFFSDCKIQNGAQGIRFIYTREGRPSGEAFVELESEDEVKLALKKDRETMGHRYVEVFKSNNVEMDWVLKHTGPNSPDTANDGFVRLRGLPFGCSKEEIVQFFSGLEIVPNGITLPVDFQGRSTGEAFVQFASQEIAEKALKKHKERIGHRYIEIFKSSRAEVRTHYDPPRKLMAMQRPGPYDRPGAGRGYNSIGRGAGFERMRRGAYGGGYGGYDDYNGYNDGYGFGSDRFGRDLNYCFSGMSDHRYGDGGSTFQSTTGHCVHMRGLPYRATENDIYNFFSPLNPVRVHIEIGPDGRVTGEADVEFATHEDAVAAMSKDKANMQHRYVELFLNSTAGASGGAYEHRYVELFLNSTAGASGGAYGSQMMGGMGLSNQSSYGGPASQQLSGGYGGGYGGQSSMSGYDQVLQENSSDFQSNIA
Sequence of Dual specificity mitogen-activated protein kinase kinase 6 (Homo sapiens) (P52564 whole entry): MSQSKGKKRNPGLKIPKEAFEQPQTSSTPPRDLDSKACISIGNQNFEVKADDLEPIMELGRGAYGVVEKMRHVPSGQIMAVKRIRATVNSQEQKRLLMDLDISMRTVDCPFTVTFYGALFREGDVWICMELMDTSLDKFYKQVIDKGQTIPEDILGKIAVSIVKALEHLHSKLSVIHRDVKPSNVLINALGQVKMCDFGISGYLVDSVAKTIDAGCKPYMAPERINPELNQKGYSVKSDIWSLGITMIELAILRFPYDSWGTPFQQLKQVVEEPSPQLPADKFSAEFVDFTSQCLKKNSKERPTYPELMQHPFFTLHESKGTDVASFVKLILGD
Sequence of Cytochrome c oxidase subunit NDUFA4 (Homo sapiens) (O00483 whole entry): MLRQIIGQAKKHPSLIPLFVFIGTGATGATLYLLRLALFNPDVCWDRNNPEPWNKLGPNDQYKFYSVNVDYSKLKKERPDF

Cc1ccc(C(=O)Nc2cccc(C(F)(F)F)c2)cc1Nc1nc(-c2cccnc2)nc2c1cnn2C
ED50 [1]: 1.4 µM | ED50 [2]: 0.00373 µM | ED50 [3]: 2.02 µM | ED50 [4]: 1.66 µM | ED50 [5]: 67.2 µM | ED50 [6]: 3.39 µM | ED50 [7]: 1.15 µM | ED50 [8]: 4.47 µM | ED50 [9]: 0.0691 µM | ED50 (Cyclin-T1 (Homo sapiens)): 0.0168 µM | ED50 [10]: 0.0178 µM | ED50 [11]: 3.8 µM | ED50 [12]: 13.1 µM | ED50 [13]: 0.0271 µM | ED50 (Homo sapiens [14]): 3.03 µM | ED50 (Cullin-3 (Homo sapiens)): 0.0191 µM | ED50 [15]: 0.133 µM | ED50 (Dynamin-2 (Homo sapiens)): 21.9 µM | ED50 [16]: 11 µM | ED50 [17]: 5.86 µM | ED50 [18]: 0.0533 µM | ED50 [19]: 9.39 µM | ED50 [20]: 19.2 µM | ED50 [21]: 0.0368 µM | ED50 [22]: 0.176 µM | ED50 [23]: 11.2 µM | ED50 [24]: 73.3 µM | ED50 [25]: 5.39 µM | ED50 (Midasin (Homo sapiens)): 55500 µM | ED50 [26]: 13.5 µM | ED50 [27]: 3.76 µM | ED50 [28]: 0.0016 µM | ED50 (Homo sapiens [29]): 8.11 µM | ED50 [30]: 3.51 µM | ED50 [31]: 5.83 µM | ED50 [32]: 0.174 µM | ED50 [33]: 8.44 µM | ED50 [34]: 8 µM | ED50 [35]: 3.65 µM | ED50 [36]: 0.00246 µM | ED50 [37]: 151 µM | ED50 [38]: 10.3 µM | ED50 [39]: 1.27 µM | ED50 (Homo sapiens [40]): 70 µM | ED50 [41]: 21.8 µM | ED50 [42]: 20.3 µM | ED50 [43]: 0.00621 µM | ED50 [44]: 0.648 µM

Cc1ccc(C(=O)Nc2cccc(C(F)(F)F)c2)cc1Nc1nc(-c2cccnc2)nc2nn(C)cc12
ED50 [1]: 2.25 µM | ED50 [2]: 36.5 µM | ED50 [3]: 0.0289 µM | ED50 [4]: 1.34 µM | ED50 [5]: 0.0395 µM | ED50 [6]: 0.073 µM | ED50 [7]: 0.126 µM | ED50 [8]: 0.0106 µM | ED50 [9]: 1.7 µM | ED50 (Cyclin-T1 (Homo sapiens)): 0.0502 µM | ED50 [10]: 0.0532 µM | ED50 [11]: 7.91 µM | ED50 [12]: 0.121 µM | ED50 [13]: 0.0144 µM | ED50 (Homo sapiens [14]): 0.00933 µM | ED50 (Cullin-3 (Homo sapiens)): 1.09 µM | ED50 [15]: 0.0059 µM | ED50 (Dynamin-2 (Homo sapiens)): 0.471 µM | ED50 [16]: 1.15 µM | ED50 [17]: 13.2 µM | ED50 [18]: 0.00539 µM | ED50 [19]: 0.0174 µM | ED50 [20]: 0.00375 µM | ED50 [21]: 1.71 µM | ED50 [22]: 5.25 µM | ED50 [23]: 0.0257 µM | ED50 [24]: 0.0763 µM | ED50 [25]: 50.3 µM | ED50 (Midasin (Homo sapiens)): 0.048 µM | ED50 [26]: 70.3 µM | ED50 [27]: 0.655 µM | ED50 [28]: 22200 µM | ED50 (Homo sapiens [29]): 13.1 µM | ED50 [30]: 0.502 µM | ED50 [31]: 0.174 µM | ED50 [32]: 4.34 µM | ED50 [33]: 1.31 µM | ED50 [34]: 6.92 µM | ED50 [35]: 0.00679 µM | ED50 [36]: 4.94 µM | ED50 [37]: 2.11 µM | ED50 [38]: 27 µM | ED50 [39]: 5.23 µM | ED50 (Homo sapiens [40]): 17.7 µM | ED50 [41]: 0.0058 µM | ED50 [42]: 3.59 µM | ED50 [43]: 0.0346 µM | ED50 [44]: 3.84 µM

Reference: ChEMBL document CHEMBL5649169 (ChemMedChem, 2018)
